31 compounds from US6716987B1, “Derivatives of benzofuran or benzodioxazole compounds” (Kyowa Hakko Kogyo Co., Ltd., priority 1995, dated 2004) can be followed below.

Molecules are shown by their SMILES.

For this assay, the system named is cAMP-specific phosphodiesterase (PDE IV). Briefly: Inhibition of the PDE IV enzyme derived from a dog trachea. In kind it is biochemical. Conditions: test compound 10^−6 M; PDE IV from dog tracheal smooth muscle; substrate cAMP 1 μM. The method, then:
cAMP-specific phosphodiesterase (PDE IV) was purified from a dog tracheal smooth muscle according to the method of Torphy et al. [Molecular Pharmacol., 37, 206-214 (1990)]. The PDE activity was measured by the following two steps according to the method of Kincaid and Manganiello et al. [Method in Enzymology (J. D. Corbin and R. A. Jonson, Eds.), 199, 457-470 (1988)]. Using [^3]cAMP (at a final concentration of 1 μM) as a substrate, the reaction was carried out in a standard mixture containing N,N-bis(2-hydroxyethyl)-2-aminoethanesulfonic acid (50 mM, pH=7.2), MgCl2 (1 mM), and soybean trypsin inhibitor (0.1 mg/ml). The reaction was initiated by adding the enzyme, followed by incubation at 30° C. for 10 to 30 minutes. After stopping the reaction with hydrochloric acid, the generated […] was completely converted to adenosine by 5′-nucleotidase.
The resultant was subjected to chromatography on DEAE-Sephadex A-25, and radio activity of the eluted [^3H] adenosine was counted using a scintillation counter. Each of the test drugs was dissolved in DMSO (final concentration 1.7%) and then added to the mixture.
Turning to `COc1ccc(C(=O)Nc2c(Cl)cncc2Cl)c2c1OCC2CC(=O)N1CCN(C)CC1.Cl` (racemic) [Compound 17, (±)-4-[(3,5-Dichloro-4-pyridyl)aminocarbonyl]-7-methoxy-3-[(4-methylpiperazin-1-yl)carbonylmethyl]-2,3-dihydro-benzofuran.hydrochloride], the “Enzyme Inhibitory Activity (%, 10^−6 M)” value was determined as 63%.

Consider `COc1ccc(C(=O)Nc2c(Cl)cncc2Cl)c2c1OCC2CC(=O)NCc1ccccn1` (racemic) [Compound 24, (±)-4-[(3,5-Dichloro-4-pyridyl)aminocarbonyl]-7-methoxy-3-[(2-pyridylmethyl)aminocarbonyl]methyl-2,3-dihydrobenzofuran], for which the “Enzyme Inhibitory Activity (%, 10^−6 M)” value was found to be 80%.

As to `COc1ccc(C(=O)Cc2ccncc2)c2cc(CC(C)C)oc12.Cl` [Compound 110, 7-Methoxy-2-(2-methylpropyl)-4-[1-oxo-2-(4-pyridyl)-ethyl]benzofuran.hydrochloride], the “Enzyme Inhibitory Activity (%, 10^−6 M)” value was found to be 80%.

Take `COc1ccc(C(=O)Nc2c(Cl)cncc2Cl)c2ccoc12` [Compound 33, 4-[(3,5-Dichloro-4-pyridyl)aminocarbonyl]-7-methoxy-benzofuran]: the “Enzyme Inhibitory Activity (%, 10^−6 M)” value amounted to 71%.

For `COc1ccc(CCc2c(Cl)cncc2Cl)c2c1OC1(CCCCC1)C2.CS(=O)(=O)O` [Compound 54, 4-[2-(3,5-Dichloro-4-pyridyl)ethyl]-7-methoxy-spiro[2,3-dihydrobenzofuran-2,1′-cyclohexane].methanesulfonate], the “Enzyme Inhibitory Activity (%, 10^−6 M)” value is given as 81%.

As to `COc1ccc(C(=Cc2ccncc2)c2ccccc2)c2c1OC1(CCCC1)O2` [Compound 139, 4-Methoxy-7-[1-phenyl-2-(4-pyridyl)ethenyl]-spiro[1,3-benzodioxole-2,1′-cyclopentane]], the “Enzyme Inhibitory Activity (%, 10^−6 M)” value came to 54%.

On to `COc1ccc(/C=C/c2c(Cl)cncc2Cl)c2c1OC1(CCCCC1)C2.CS(=O)(=O)O` [Compound 76, (E)-4-[2-(3,5-Dichloro-4-pyridyl)ethenyl]-7-methoxy-spiro[2,3-dihydrobenzofuran-2,1′-cyclohexane].methanesulfonate], for which the “Enzyme Inhibitory Activity (%, 10^−6 M)” value came out at 93%.

In the case of `CCOC(=O)CC1COc2c(OC)ccc(C(=O)Nc3ccncc3)c21` (racemic) [Compound 6, (±)-3-Ethoxycarbonylmethyl-7-methoxy-4-pyridylaminocarbonyl-2,3-dihydrobenzofuran], the “Enzyme Inhibitory Activity (%, 10^−6 M)” value turned out to be 66%.

In the case of `COc1ccc(C(=O)Nc2ccncc2)c2c1OC1(CCCC1)CC2.CS(=O)(=O)O` [Compound 124, 8-Methoxy-5-(4-pyridylaminocarbonyl)-spiro[3,4-dihydrobenzopyran-2,1′-cyclopentane].methanesulfonate], the “Enzyme Inhibitory Activity (%, 10^−6 M)” value stood at 57%.

Take `COc1ccc(CCc2ccncc2)c2c1OC1(CCCC1)O2.Cl` [Compound 136, 4-Methoxy-7-[2-(4-pyridyl)ethyl]-spiro[1,3-benzodioxole-2,1′-cyclopentane].hydrochloride]: the “Enzyme Inhibitory Activity (%, 10^−6 M)” value amounted to 75%.

For the compound `CCC1(CC)Cc2c(/C=C/c3c(Cl)cncc3Cl)ccc(OC)c2O1.CS(=O)(=O)O` [Compound 71, (E)-2,2-Diethyl-7-methoxy-4-[2-(3,5-dichloro-4-pyridyl)ethenyl]-2,3-dihydrobenzofuran.methanesulfonate], the “Enzyme Inhibitory Activity (%, 10^−6 M)” value stood at 87%.

As to `COc1ccc(C(Cc2ccncc2)c2ccccc2)c2c1OC1(CCCC1)O2.Cl` (stereo not shown) [Compound 137, 4-Methoxy-7-[1-phenyl-2-(4-pyridyl)ethyl]-spiro[1,3-benzodioxole-2,1′-cyclopentane].hydrochloride], the “Enzyme Inhibitory Activity (%, 10^−6 M)” value is 61%.

As to `COc1ccc(C(=O)Nc2c(Cl)cncc2Cl)c2cc(C#N)oc12` [Compound 34, 2-Cyano-4-(3,5-dichloropyridin-4-ylaminocarbonyl)-7-methoxybenzofuran], the “Enzyme Inhibitory Activity (%, 10^−6 M)” value is listed as 100%.

For `COc1ccc(/C=C/c2ccncc2)c2c1OCC2C` (racemic) [Compound 79, (E)-(±)-7-Methoxy-3-methyl-4-[2-(4-pyridyl)ethenyl]-2,3-dihydrobenzofuran], the “Enzyme Inhibitory Activity (%, 10^−6 M)” value was found to be 45%.

For `COc1ccc(C(Sc2ccncc2)c2ccccc2)c2c1OC(C)(C)C2` (racemic) [Compound 49, (±)-7-Methoxy-2,2-dimethyl-4-[1-phenyl-1-(4-pyridylthio)methyl]-2,3-dihydrobenzofuran], the “Enzyme Inhibitory Activity (%, 10^−6 M)” value was 40%.

Regarding `COc1ccc(CCc2ccncc2)c2c1OC1(CCCC1)C2.Cl` [Compound 53, 7-Methoxy-4-[2-(4-pyridyl)ethyl]-spiro[2,3-dihydro-benzofuran-2,1′-cyclopentane].hydrochloride], the “Enzyme Inhibitory Activity (%, 10^−6 M)” value is reported as 84%.

For `COc1ccc(C(C#N)Cc2ccncc2)c2c1OC1(CCCC1)C2.Cl` (racemic) [Compound 64, (±)-4-[1-Cyano-2-(4-pyridyl)ethyl]-7-methoxy-spiro[2,3-dihydrobenzofuran-2,1′-cyclopentane].hydrochloride], the “Enzyme Inhibitory Activity (%, 10^−6 M)” value was determined as 78%.

Turning to `COc1ccc(C(=O)Nc2c(Cl)cncc2Cl)c2c1OCC2CC(=O)NCc1ccncc1` (racemic) [Compound 26, (±)-4-[(3,5-Dichloro-4-pyridyl)aminocarbonyl]-7-methoxy-3-[(4-pyridylmethyl)aminocarbonyl]methyl-2,3-dihydrobenzofuran], the “Enzyme Inhibitory Activity (%, 10^−6 M)” value is on record as 79%.

In the case of `COc1ccc(/C=C/c2ccncc2)c2cc(-c3ccccc3)oc12.Cl` [Compound 81, (E)-7-Methoxy-2-phenyl-4-[2-(4-pyridyl)ethenyl]-benzofuran.hydrochloride], the “Enzyme Inhibitory Activity (%, 10^−6 M)” value is on record as 56%.

As for `COc1ccc(C(=O)Nc2c(Cl)cncc2Cl)c2c1OCC2CC(=O)Nc1ncccn1` (racemic) [Compound 20, (±)-4-[(3,5-Dichloro-4-pyridyl)aminocarbonyl]-7-methoxy-3-[(2-pyrimidyl)aminocarbonyl]methyl-2,3-dihydro-benzofuran], the “Enzyme Inhibitory Activity (%, 10^−6 M)” value is 80%.

For the compound `COc1ccc(C(C)(C#N)Cc2ccncc2)c2c1OC1(CCCC1)C2.Cl` (racemic) [Compound 65, (±)-4-[1-Cyano-1-methyl-2-(4-pyridyl)ethyl]-7-methoxy-spiro[2,3-dihydrobenzofuran-2,1′-cyclopentane].hydrochloride], the “Enzyme Inhibitory Activity (%, 10^−6 M)” value is on record as 74%.

In the case of `COc1ccc(C(=O)Cc2ccncc2)c2c(-c3ccccc3)coc12.Cl` [Compound 118, 7-Methoxy-4-[1-oxo-2-(4-pyridyl)ethyl]-3-phenyl-benzofuran.hydrochloride], the “Enzyme Inhibitory Activity (%, 10^−6 M)” value is 80%.

On to `COc1ccc(CCc2c(Cl)cncc2Cl)c2c1OC1(CCCC1)C2.CS(=O)(=O)O` [Compound 52, 4-[2-(3,5-Dichloro-4-pyridyl)ethyl]-7-methoxy-spiro[2,3-dihydrobenzofuran-2,1′-cyclopentane].methanesulfonate], for which the “Enzyme Inhibitory Activity (%, 10^−6 M)” value turned out to be 86%.

`COc1ccc(C(=O)Nc2c(Cl)cncc2Cl)c2c1OCC2CC(=O)Nc1cccnc1` (racemic) [Compound 19, (±)-4-[(3,5-Dichloro-4-pyridyl)aminocarbonyl]-7-methoxy-3-[(3-pyridyl)aminocarbonyl]methyl-2,3-dihydro-benzofuran]: the “Enzyme Inhibitory Activity (%, 10^−6 M)” value was 87%.

On to `COc1ccc(CCc2ccncc2)c2c1OC1(CCCCC1)C2.Cl` [Compound 55, 7-Methoxy-4-[2-(4-pyridyl)ethyl]-spiro[2,3-dihydro-benzofuran-2,1′-cyclohexane].hydrochloride], for which the “Enzyme Inhibitory Activity (%, 10^−6 M)” value was 86%.

Take `CCCCc1cc2c(C(=O)Cc3ccncc3)ccc(OC)c2o1.Cl` [Compound 109, 2-Butyl-7-methoxy-4-[1-oxo-2-(4-pyridyl)ethyl]-benzofuran.hydrochloride]: the “Enzyme Inhibitory Activity (%, 10^−6 M)” value is on record as 68%.

With `COC(=O)c1cccc(NC(=O)/C=C/c2ccc(OC)c3c2CC2(CCCC2)O3)c1` [Compound 93, (E)-7-Methoxy-4-{2-[3-(methoxycarbony)phenyl-1-ylaminocarbonyl]ethenyl}-spiro[2,3-dihydrobenzofuran-2,1′-cyclopentane]], the “Enzyme Inhibitory Activity (%, 10^−6 M)” value amounted to 23%.

Take `COc1ccc(C=Cc2ccncc2)c2c1OC1(CCCCC1)CC2.Cl` [Compound 126, 8-Methoxy-5-[2-(4-pyridyl)ethenyl]-spiro[3,4-dihydrobenzopyran-2,1′-cyclohexane].hydrochloride]: the “Enzyme Inhibitory Activity (%, 10^−6 M)” value is on record as 58%.

On to `CCC1(CC)Cc2c(C(=O)Cc3ccncc3)ccc(OC)c2O1.Cl` [Compound 98, 2,2-Diethyl-7-methoxy-4-[1-oxo-2-(4-pyridyl)ethyl]-2,3-dihydrobenzofuran.hydrochloride], for which the “Enzyme Inhibitory Activity (%, 10^−6 M)” value worked out at 85%.

`CCC1(CC)Cc2c(CCc3c(Cl)cncc3Cl)ccc(OC)c2O1.CS(=O)(=O)O` [Compound 50, 4-[2-(3,5-Dichloro-4-pyridyl)ethyl]-2,2-diethyl-7-methoxy-2,3-dihydrobenzofuran.methanesulfonate]: the “Enzyme Inhibitory Activity (%, 10^−6 M)” value worked out at 69%.

`COc1ccc(C(=O)Cc2ccncc2)c2c1OC1(CCCCC1)CC2.Cl` [Compound 128, 8-Methoxy-5-[1-oxo-2-(4-pyridyl)ethyl]-spiro[3,4-dihydrobenzopyran-2,1′-cyclohexane].hydrochloride]: the “Enzyme Inhibitory Activity (%, 10^−6 M)” value came to 62%.
